{"source": "ChEMBL document CHEMBL3132769", "about": "“Fragment growing to retain or alter the selectivity of anchored kinase hinge-binding fragments” (Medchemcomm, 2014)", "key": {"[1]": {"biological_target": "Fibroblast growth factor receptor 2 (Homo sapiens) (UniProt P21802)", "sequence (P21802 22-821 limits assumed)": "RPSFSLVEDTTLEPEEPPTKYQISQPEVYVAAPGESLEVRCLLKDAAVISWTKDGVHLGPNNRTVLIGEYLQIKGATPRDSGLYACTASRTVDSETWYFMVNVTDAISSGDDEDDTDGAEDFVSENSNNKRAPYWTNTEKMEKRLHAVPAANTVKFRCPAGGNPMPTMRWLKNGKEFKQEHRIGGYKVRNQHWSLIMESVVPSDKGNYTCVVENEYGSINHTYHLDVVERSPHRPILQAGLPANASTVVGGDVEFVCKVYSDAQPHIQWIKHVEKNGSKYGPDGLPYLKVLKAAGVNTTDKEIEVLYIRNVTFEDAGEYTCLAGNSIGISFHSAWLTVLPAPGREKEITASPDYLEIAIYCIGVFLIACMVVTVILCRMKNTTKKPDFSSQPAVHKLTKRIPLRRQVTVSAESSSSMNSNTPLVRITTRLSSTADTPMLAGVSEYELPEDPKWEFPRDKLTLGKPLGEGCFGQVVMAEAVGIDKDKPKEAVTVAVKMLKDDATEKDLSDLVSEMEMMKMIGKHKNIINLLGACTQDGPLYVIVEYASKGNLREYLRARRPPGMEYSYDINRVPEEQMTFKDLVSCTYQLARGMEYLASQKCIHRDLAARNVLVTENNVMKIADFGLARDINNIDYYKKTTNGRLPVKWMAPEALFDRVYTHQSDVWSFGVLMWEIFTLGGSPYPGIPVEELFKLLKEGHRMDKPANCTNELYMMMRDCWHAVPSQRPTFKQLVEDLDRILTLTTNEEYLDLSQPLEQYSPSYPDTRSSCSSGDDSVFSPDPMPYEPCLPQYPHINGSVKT", "test": "Inhibition of human FGFR2 catalytic domain expressed in baculovirus assessed as substrate phosphorylation using fluorescence-labelled peptides as substrate at 0.06 uM after 90 mins by microfluidic peptide phosphorylation assay"}, "[2]": {"biological_target": "Ribosomal protein S6 kinase alpha-1 (Homo sapiens) (UniProt Q15418)", "test": "Inhibition of human full length RSK1 expressed in baculovirus assessed as substrate phosphorylation using fluorescence-labelled peptides as substrate at 0.06 uM after 90 mins by microfluidic peptide phosphorylation assay"}, "[3]": {"biological_target": "Tyrosine-protein kinase BTK (Homo sapiens) (UniProt Q06187)", "sequence (Q06187 whole entry)": "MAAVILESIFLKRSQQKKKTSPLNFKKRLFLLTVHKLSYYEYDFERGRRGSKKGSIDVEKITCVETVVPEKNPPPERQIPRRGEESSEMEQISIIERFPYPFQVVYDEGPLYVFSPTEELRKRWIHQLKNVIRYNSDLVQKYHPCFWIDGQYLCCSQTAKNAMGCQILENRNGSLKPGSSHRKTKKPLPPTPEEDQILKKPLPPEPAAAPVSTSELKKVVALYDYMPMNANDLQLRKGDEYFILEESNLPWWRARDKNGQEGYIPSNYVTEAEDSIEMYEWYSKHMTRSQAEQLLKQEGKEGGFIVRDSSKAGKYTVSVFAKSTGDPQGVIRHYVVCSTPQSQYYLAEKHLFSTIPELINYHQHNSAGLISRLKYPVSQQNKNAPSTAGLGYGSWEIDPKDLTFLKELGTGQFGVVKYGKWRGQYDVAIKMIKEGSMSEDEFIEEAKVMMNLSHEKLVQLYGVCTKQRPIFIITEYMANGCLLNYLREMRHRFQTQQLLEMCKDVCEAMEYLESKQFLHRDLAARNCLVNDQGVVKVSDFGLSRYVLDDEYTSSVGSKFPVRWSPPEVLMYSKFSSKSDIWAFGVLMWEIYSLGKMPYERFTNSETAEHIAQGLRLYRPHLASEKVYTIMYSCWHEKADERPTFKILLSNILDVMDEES", "test": "Inhibition of human full length BTK expressed in baculovirus assessed as substrate phosphorylation using fluorescence-labelled peptides as substrate at 70 uM after 90 mins by microfluidic peptide phosphorylation assay"}, "[4]": {"biological_target": "Hepatocyte growth factor receptor (Homo sapiens) (UniProt P08581)", "sequence (P08581 whole entry, the tested form may be a part)": "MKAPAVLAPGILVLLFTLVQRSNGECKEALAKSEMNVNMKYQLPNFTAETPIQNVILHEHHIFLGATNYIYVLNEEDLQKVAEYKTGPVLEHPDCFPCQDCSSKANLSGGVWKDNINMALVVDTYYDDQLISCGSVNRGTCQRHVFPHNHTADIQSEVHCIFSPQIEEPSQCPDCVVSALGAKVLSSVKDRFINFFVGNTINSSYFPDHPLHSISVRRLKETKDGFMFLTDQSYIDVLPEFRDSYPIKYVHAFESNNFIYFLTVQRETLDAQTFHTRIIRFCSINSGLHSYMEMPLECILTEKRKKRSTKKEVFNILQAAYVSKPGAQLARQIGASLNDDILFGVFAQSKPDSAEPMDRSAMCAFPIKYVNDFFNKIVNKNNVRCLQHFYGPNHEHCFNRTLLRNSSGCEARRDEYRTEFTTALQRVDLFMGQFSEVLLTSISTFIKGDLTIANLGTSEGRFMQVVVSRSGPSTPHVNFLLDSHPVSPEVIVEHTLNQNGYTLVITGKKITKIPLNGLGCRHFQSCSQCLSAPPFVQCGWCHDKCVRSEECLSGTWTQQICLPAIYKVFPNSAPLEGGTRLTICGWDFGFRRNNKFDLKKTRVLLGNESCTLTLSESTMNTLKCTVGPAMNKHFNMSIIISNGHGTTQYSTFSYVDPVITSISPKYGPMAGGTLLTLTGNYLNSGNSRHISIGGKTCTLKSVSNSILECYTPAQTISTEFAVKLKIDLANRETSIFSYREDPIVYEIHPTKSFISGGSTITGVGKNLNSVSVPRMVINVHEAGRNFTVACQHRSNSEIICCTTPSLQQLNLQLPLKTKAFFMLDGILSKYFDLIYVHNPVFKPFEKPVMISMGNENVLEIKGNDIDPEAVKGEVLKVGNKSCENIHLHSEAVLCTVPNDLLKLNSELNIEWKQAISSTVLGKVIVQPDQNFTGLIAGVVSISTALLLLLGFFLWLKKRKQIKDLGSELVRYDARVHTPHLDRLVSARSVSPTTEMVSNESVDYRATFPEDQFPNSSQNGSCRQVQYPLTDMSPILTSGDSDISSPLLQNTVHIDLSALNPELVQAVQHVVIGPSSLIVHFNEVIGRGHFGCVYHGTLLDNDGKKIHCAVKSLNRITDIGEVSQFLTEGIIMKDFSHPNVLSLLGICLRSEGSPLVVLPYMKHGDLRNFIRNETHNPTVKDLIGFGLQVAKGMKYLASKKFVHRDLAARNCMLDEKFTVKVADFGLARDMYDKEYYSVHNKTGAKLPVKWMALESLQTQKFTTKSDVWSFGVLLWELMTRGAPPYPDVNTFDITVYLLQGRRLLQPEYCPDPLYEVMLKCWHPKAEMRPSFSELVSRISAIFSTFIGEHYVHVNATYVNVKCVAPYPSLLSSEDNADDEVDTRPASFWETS", "test": "Inhibition of human MET cytoplasmic domain expressed in baculovirus assessed as substrate phosphorylation using fluorescence-labelled peptides as substrate at 0.2 uM after 90 mins by microfluidic peptide phosphorylation assay"}, "[5]": {"biological_target": "Tyrosine-protein kinase Fer (Homo sapiens) (UniProt P16591)", "test": "Inhibition of human FER catalytic domain expressed in baculovirus assessed as substrate phosphorylation using fluorescence-labelled peptides as substrate at 95 uM after 90 mins by microfluidic peptide phosphorylation assay"}, "[6]": {"biological_target": "Fibroblast growth factor receptor 1 (Homo sapiens) (UniProt P11362)", "test": "Inhibition of human FGFR1 catalytic domain expressed in baculovirus assessed as substrate phosphorylation using fluorescence-labelled peptides as substrate at 9 uM after 90 mins by microfluidic peptide phosphorylation assay"}, "[7]": {"biological_target": "Calcium/calmodulin-dependent protein kinase type II subunit beta (Homo sapiens) (UniProt Q13554)", "test": "Inhibition of human CAMK2 beta catalytic domain expressed in baculovirus assessed as substrate phosphorylation using fluorescence-labelled peptides as substrate at 1000 uM after 90 mins by microfluidic peptide phosphorylation assay"}, "[8]": {"biological_target": "Tyrosine-protein kinase BTK (Homo sapiens) (UniProt Q06187)", "test": "Inhibition of human full length BTK expressed in baculovirus assessed as substrate phosphorylation using fluorescence-labelled peptides as substrate at 1000 uM after 90 mins by microfluidic peptide phosphorylation assay"}, "[9]": {"biological_target": "T1, Protein kinase C epsilon type (Homo sapiens) (UniProt Q02156)", "T1 sequence (whole entry)": "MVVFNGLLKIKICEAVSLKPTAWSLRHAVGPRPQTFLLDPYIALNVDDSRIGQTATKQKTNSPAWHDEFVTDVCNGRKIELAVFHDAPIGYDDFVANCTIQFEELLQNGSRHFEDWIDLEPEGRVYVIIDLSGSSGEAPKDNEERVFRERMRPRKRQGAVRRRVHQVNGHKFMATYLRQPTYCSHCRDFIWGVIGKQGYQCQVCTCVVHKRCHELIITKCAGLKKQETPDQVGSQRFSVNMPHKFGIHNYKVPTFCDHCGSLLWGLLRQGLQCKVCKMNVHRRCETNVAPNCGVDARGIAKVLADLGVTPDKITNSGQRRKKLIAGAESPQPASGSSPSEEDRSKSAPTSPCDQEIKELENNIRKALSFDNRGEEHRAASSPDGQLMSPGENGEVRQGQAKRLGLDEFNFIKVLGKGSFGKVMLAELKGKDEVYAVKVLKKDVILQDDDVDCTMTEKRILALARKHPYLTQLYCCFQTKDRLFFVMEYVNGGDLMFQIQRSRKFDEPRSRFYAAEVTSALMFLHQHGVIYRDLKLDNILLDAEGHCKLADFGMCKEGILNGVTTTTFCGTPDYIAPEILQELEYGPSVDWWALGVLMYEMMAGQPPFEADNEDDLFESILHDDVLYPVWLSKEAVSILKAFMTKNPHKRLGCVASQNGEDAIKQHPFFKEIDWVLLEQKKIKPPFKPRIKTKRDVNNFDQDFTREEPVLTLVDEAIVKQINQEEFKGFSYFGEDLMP", "test": "Inhibition of human truncated PKC epsilon expressed in baculovirus assessed as substrate phosphorylation using fluorescence-labelled peptides as substrate at 1000 uM after 90 mins by microfluidic peptide phosphorylation assay"}, "[10]": {"biological_target": "Insulin receptor (Homo sapiens) (UniProt P06213)", "test": "Inhibition of human INSR catalytic domain expressed in baculovirus assessed as substrate phosphorylation using fluorescence-labelled peptides as substrate at 1000 uM after 90 mins by microfluidic peptide phosphorylation assay"}, "[11]": {"biological_target": "Tyrosine-protein kinase Lck (Homo sapiens) (UniProt P06239)", "test": "Inhibition of human full length LCK expressed in baculovirus assessed as substrate phosphorylation using fluorescence-labelled peptides as substrate at 1000 uM after 90 mins by microfluidic peptide phosphorylation assay"}, "[12]": {"biological_target": "Fibroblast growth factor receptor 3 (Homo sapiens) (UniProt P22607)", "sequence (P22607 23-806 limits assumed)": "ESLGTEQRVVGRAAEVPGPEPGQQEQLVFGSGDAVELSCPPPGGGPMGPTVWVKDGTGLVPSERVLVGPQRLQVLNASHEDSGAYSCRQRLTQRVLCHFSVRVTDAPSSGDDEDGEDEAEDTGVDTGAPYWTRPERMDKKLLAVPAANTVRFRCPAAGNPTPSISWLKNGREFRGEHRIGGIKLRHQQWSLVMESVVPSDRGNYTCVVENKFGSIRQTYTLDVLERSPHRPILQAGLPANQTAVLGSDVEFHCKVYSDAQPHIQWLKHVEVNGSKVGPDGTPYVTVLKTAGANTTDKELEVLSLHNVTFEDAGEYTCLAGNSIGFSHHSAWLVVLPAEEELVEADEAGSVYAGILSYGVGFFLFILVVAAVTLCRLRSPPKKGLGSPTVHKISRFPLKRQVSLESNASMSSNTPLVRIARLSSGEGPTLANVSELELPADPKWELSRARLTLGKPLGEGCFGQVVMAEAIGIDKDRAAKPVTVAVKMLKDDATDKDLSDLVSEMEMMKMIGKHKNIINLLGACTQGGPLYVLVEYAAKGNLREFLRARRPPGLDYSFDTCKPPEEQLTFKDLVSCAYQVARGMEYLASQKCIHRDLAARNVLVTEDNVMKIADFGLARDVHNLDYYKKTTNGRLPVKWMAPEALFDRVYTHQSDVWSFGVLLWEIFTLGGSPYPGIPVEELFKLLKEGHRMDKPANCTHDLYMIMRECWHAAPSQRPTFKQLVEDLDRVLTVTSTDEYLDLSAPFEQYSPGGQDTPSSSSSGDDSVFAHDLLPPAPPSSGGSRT", "test": "Inhibition of human FGFR3 catalytic domain expressed in baculovirus assessed as substrate phosphorylation using fluorescence-labelled peptides as substrate at 1000 uM after 90 mins by microfluidic peptide phosphorylation assay"}, "[13]": {"biological_target": "Mitogen-activated protein kinase 3 (Homo sapiens) (UniProt P27361)", "sequence (P27361 whole entry)": "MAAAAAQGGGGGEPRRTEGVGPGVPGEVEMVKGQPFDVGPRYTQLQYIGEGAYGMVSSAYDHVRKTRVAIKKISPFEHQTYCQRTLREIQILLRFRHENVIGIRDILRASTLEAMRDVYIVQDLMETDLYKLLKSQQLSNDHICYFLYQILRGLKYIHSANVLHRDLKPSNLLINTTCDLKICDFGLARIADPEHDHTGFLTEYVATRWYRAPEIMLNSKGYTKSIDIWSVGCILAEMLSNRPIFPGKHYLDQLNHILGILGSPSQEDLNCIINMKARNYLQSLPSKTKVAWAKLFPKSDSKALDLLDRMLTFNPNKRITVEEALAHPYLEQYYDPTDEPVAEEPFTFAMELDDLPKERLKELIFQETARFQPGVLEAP", "test": "Inhibition of human full length ERK1 expressed in Escherichia coli cell assessed as substrate phosphorylation using fluorescence-labelled peptides as substrate at 1000 uM after 90 mins by microfluidic peptide phosphorylation assay"}, "[14]": {"biological_target": "Fibroblast growth factor receptor 2 (Homo sapiens) (UniProt P21802)", "test": "Inhibition of human FGFR2 catalytic domain expressed in baculovirus assessed as substrate phosphorylation using fluorescence-labelled peptides as substrate at 2 uM after 90 mins by microfluidic peptide phosphorylation assay"}, "[15]": {"biological_target": "Insulin-like growth factor 1 receptor (Homo sapiens) (UniProt P08069)", "test": "Inhibition of human IGF1R catalytic domain expressed in baculovirus assessed as substrate phosphorylation using fluorescence-labelled peptides as substrate at 8 uM after 90 mins by microfluidic peptide phosphorylation assay"}, "[16]": {"biological_target": "Ribosomal protein S6 kinase alpha-5 (Homo sapiens) (UniProt O75582)", "sequence (O75582 whole entry, looked up)": "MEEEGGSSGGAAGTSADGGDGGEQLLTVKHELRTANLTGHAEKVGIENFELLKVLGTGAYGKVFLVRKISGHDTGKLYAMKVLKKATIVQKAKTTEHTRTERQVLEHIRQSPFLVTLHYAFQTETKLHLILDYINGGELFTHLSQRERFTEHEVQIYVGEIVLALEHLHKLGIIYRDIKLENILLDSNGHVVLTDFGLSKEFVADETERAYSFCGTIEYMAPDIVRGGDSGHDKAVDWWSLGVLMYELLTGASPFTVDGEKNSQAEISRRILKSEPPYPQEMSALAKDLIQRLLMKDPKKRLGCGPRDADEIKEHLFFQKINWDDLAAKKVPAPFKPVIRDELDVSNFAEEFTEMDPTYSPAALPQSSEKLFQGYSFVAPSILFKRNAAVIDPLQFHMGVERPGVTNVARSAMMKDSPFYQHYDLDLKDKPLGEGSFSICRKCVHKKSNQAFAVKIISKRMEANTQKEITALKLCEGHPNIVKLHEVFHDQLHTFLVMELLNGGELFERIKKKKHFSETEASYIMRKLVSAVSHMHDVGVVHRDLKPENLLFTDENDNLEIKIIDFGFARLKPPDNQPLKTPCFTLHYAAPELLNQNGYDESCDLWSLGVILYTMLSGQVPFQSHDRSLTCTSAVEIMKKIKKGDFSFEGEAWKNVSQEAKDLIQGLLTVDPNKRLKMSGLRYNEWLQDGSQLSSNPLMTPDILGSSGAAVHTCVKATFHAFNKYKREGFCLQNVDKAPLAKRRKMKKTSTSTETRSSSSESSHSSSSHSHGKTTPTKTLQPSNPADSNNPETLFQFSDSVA", "test": "Inhibition of human full length MSK1 expressed in baculovirus assessed as substrate phosphorylation using fluorescence-labelled peptides as substrate at 0.1 uM after 90 mins by microfluidic peptide phosphorylation assay"}}}
{"molecule": "NC1(Cc2ccc(Cl)cc2)CCN(c2ncnc3[nH]ccc23)CC1", "values": [{"measurement": "inhibition", "setting": "[1]", "value": 0, "unit": "%"}, {"measurement": "inhibition", "setting": "[2]", "value": 19.5, "unit": "%"}]}
{"molecule": "CNCc1ccc(-c2ncnc3[nH]cnc23)cc1", "values": [{"measurement": "inhibition", "setting": "[3]", "value": 0, "unit": "%"}]}
{"molecule": "Clc1ccc(C2(c3ccc(-c4ncnc5[nH]cnc45)cc3)CCNCC2)cc1", "values": [{"measurement": "inhibition", "setting": "[4]", "value": 9.5, "unit": "%"}]}
{"molecule": "NCCc1ccc(-c2ncnc3[nH]cnc23)cc1", "values": [{"measurement": "inhibition", "setting": "[5]", "value": 28, "unit": "%"}]}
{"molecule": "NCC1CN(c2ncnc3[nH]c4cnccc4c23)CCO1", "note": "(stereo unspecified)", "values": [{"measurement": "inhibition", "setting": "[6]", "value": 55.5, "unit": "%"}]}
{"molecule": "c1cnc2[nH]ccc2c1", "values": [{"measurement": "inhibition", "setting": "[7]", "value": 30, "unit": "%"}, {"measurement": "inhibition", "setting": "[8]", "value": 19, "unit": "%"}, {"measurement": "inhibition", "setting": "[9]", "value": 38, "unit": "%"}, {"measurement": "inhibition", "setting": "[10]", "value": 29, "unit": "%"}, {"measurement": "inhibition", "setting": "[11]", "value": 29, "unit": "%"}, {"measurement": "inhibition", "setting": "[12]", "value": 63.5, "unit": "%"}, {"measurement": "inhibition", "setting": "[13]", "value": 36, "unit": "%"}]}
{"molecule": "NC1CCN(c2ncnc3[nH]ccc23)CC1", "values": [{"measurement": "inhibition", "setting": "[14]", "value": 1.5, "unit": "%"}]}
{"molecule": "NCC1CCN(c2ncnc3[nH]ccc23)CC1", "values": [{"measurement": "inhibition", "setting": "[15]", "value": 30, "unit": "%"}]}
{"molecule": "C[C@H](CN(C)C)Oc1nc(Nc2cc3cccc(Cl)c3cn2)cnc1C#N", "values": [{"measurement": "inhibition", "setting": "[16]", "value": 0.5, "unit": "%"}]}
